In brackets after ≈: the same amount, converted by molar mass.

This note sets out measurements from ChEMBL document CHEMBL4184210, “Optimization of novel monobactams with activity against carbapenem-resistant Enterobacteriaceae - Identification of LYS228” (Bioorg Med Chem Lett, 2018).

The subject of one series is Mus musculus. Briefly: Toxicity in CD1 mouse assessed as induction of convulsion at 100 mg/kg, icv measured 1 hr after post dose. The class given is organism-based. The conditions noted are these: in vivo, icv_or_intrathecal.
Series [1] addresses GABA A receptor alpha-2/beta-2/gamma-2 (Homo sapiens) (UniProt P47870+P18507+P47869). Briefly: Inhibition of recombinant human GABA A alpha2beta2gamma2 receptor expressed in CHO-K1 cells at 300 uM incubated at room temperature for 15 mins before the GABA addition fluorescence spectrometry. The class given is cell-based.
Series [2] relates to Escherichia coli. Briefly: microbe, parasite or virus in culture.
Description: Antimicrobial activity against Escherichia coli expressing beta-lactamase P99 by CLSI broth microdilution method
For series [3], the system named is Escherichia coli. Description: Antimicrobial activity against Escherichia coli expressing beta-lactamase TEM-1 by CLSI broth microdilution method. In kind it is functional.
Series [4] concerns Escherichia coli. Description: Antimicrobial activity against Escherichia coli expressing beta-lactamase NDM-5 by CLSI broth microdilution method. The class given is functional. (Dilution methods test growth across graded concentrations, often in twofold steps.)
Series [5] deals with Escherichia coli. Description: microbe, parasite or virus in culture. This is another data set of the same source.
Description: Antimicrobial activity against Escherichia coli expressing beta-lactamase TEM-47 by CLSI broth microdilution method
Series [6] is described as follows: Chemical stability in pH 7.4 potassium phosphate buffer assessed as half life for compound hydrolysis at 37 degC by UPLC and mass spectrometry. In kind it is physicochemical.
Series [7] has as its system Escherichia coli. Briefly: microbe, parasite or virus in culture. The source holds these as a separate data set.
Description: Antimicrobial activity against Escherichia coli expressing beta-lactamase PER-2 by CLSI broth microdilution method
For series [8], the system named is Escherichia coli. Briefly: microbe, parasite or virus in culture. This is another data set of the same source.
Description: Antimicrobial activity against Escherichia coli expressing beta-lactamase Oxa-225 by CLSI broth microdilution method
The test system of series [9] is Escherichia coli. Description: microbe, parasite or virus in culture. This is another data set of the same source.
Description: Antimicrobial activity against Escherichia coli expressing beta-lactamase TEM-16 by CLSI broth microdilution method
Series [10] concerns Escherichia coli. Briefly: microbe, parasite or virus in culture. The source holds these as a separate data set.
Description: Antimicrobial activity against Escherichia coli expressing beta-lactamase VEB-4 by CLSI broth microdilution method
For series [11], the system named is Escherichia coli. Description: microbe, parasite or virus in culture. This is another data set of the same source.
Description: Antimicrobial activity against Escherichia coli expressing beta-lactamase Oxa-51 by CLSI broth microdilution method
In series [12] the test system is Escherichia coli. Briefly: microbe, parasite or virus in culture. The source holds these as a separate data set.
Description: Antimicrobial activity against Escherichia coli expressing beta-lactamase Oxa-160 by CLSI broth microdilution method
Series [13] deals with Escherichia coli. Description: microbe, parasite or virus in culture. The source holds these as a separate data set.
Description: Antimicrobial activity against Escherichia coli expressing beta-lactamase CMY-2 by CLSI broth microdilution method
Series [14] deals with Escherichia coli. Description: microbe, parasite or virus in culture. The source holds these as a separate data set.
Description: Antimicrobial activity against Escherichia coli expressing beta-lactamase Oxa-10 by CLSI broth microdilution method
In series [15] the test system is Escherichia coli. Description: microbe, parasite or virus in culture. This is another data set of the same source.
Description: Antimicrobial activity against Escherichia coli expressing beta-lactamase MIR-1 by CLSI broth microdilution method
Series [16] has as its system Escherichia coli. Briefly: microbe, parasite or virus in culture. This is another data set of the same source.
Description: Antimicrobial activity against Escherichia coli expressing beta-lactamase Oxa-23 by CLSI broth microdilution method
The subject of series [17] is Escherichia coli. Briefly: microbe, parasite or virus in culture. This is another data set of the same source.
Description: Antimicrobial activity against Escherichia coli expressing beta-lactamase DHA by CLSI broth microdilution method
The subject of series [18] is Escherichia coli. Briefly: microbe, parasite or virus in culture. The source holds these as a separate data set.
Description: Antimicrobial activity against Escherichia coli expressing beta-lactamase KPC-3 by CLSI broth microdilution method
Series [19] relates to Escherichia coli. Briefly: microbe, parasite or virus in culture. The source holds these as a separate data set.
Description: Antimicrobial activity against Escherichia coli expressing beta-lactamase GIM-1 by CLSI broth microdilution method
The subject of series [20] is Escherichia coli. Description: Antimicrobial activity against Escherichia coli expressing beta-lactamase NDM-1 by CLSI broth microdilution method. The class given is functional.
Series [21] deals with Escherichia coli. Description: microbe, parasite or virus in culture. The source holds these as a separate data set.
Description: Antimicrobial activity against Escherichia coli expressing beta-lactamase SHV-12 by CLSI broth microdilution method
The test system of series [22] is Escherichia coli. Briefly: microbe, parasite or virus in culture. This is another data set of the same source.
Description: Antimicrobial activity against Escherichia coli expressing beta-lactamase Oxa-146 by CLSI broth microdilution method
Series [23] deals with Escherichia coli. Description: microbe, parasite or virus in culture. This is another data set of the same source.
Description: Antimicrobial activity against Escherichia coli expressing beta-lactamase AmpC by CLSI broth microdilution method
For series [24], the system named is Escherichia coli. Briefly: Antimicrobial activity against Escherichia coli expressing beta-lactamase VEB-1 by CLSI broth microdilution method. In kind it is functional.
A further series has as its system Enterobacteriaceae. Briefly: Antimicrobial activity against ESBL, KPC and MBL producing Enterobacteriaceae by CLSI broth microdilution method. The class given is functional.
The test system of series [25] is Escherichia coli. Description: microbe, parasite or virus in culture. The source holds these as a separate data set.
Description: Antimicrobial activity against Escherichia coli expressing beta-lactamase GES-1 by CLSI broth microdilution method
For series [26], the system named is Escherichia coli. Description: microbe, parasite or virus in culture. This is another data set of the same source.
Description: Antimicrobial activity against Escherichia coli expressing beta-lactamase TEM-24 by CLSI broth microdilution method
In series [27] the test system is Escherichia coli. Description: microbe, parasite or virus in culture. This is another data set of the same source.
Description: Antimicrobial activity against Escherichia coli expressing beta-lactamase IMP-1 by CLSI broth microdilution method
Series [28] concerns Escherichia coli. Description: microbe, parasite or virus in culture. This is another data set of the same source.
Description: Antimicrobial activity against Escherichia coli expressing beta-lactamase VEB-7 by CLSI broth microdilution method
The subject of series [29] is Escherichia coli. Description: microbe, parasite or virus in culture. The source holds these as a separate data set.
Description: Antimicrobial activity against Escherichia coli expressing beta-lactamase PER-4 by CLSI broth microdilution method
The subject of series [30] is Escherichia coli. Description: microbe, parasite or virus in culture. The source holds these as a separate data set.
Description: Antimicrobial activity against Escherichia coli expressing beta-lactamase PER-1 by CLSI broth microdilution method
The subject of series [31] is Escherichia coli. Briefly: microbe, parasite or virus in culture. The source holds these as a separate data set.
Description: Antimicrobial activity against Escherichia coli expressing beta-lactamase KPC-4 by CLSI broth microdilution method
Series [32] has as its system Escherichia coli. Briefly: microbe, parasite or virus in culture. The source holds these as a separate data set.
Description: Antimicrobial activity against wild type Escherichia coli by CLSI broth microdilution method
Series [33] deals with Escherichia coli. Description: microbe, parasite or virus in culture. The source holds these as a separate data set.
Description: Antimicrobial activity against Escherichia coli expressing beta-lactamase NMC-A by CLSI broth microdilution method
The test system of series [34] is Escherichia coli. Description: microbe, parasite or virus in culture. This is another data set of the same source.
Description: Antimicrobial activity against Escherichia coli expressing beta-lactamase Oxa-181 by CLSI broth microdilution method
In series [35] the test system is Escherichia coli. Briefly: microbe, parasite or virus in culture. This is another data set of the same source.
Description: Antimicrobial activity against Escherichia coli expressing beta-lactamase Oxa-40 by CLSI broth microdilution method
The test system of series [36] is Escherichia coli. Description: microbe, parasite or virus in culture. This is another data set of the same source.
Description: Antimicrobial activity against Escherichia coli expressing beta-lactamase Oxa-18 by CLSI broth microdilution method
Series [37] has as its system Escherichia coli. Briefly: microbe, parasite or virus in culture. The source holds these as a separate data set.
Description: Antimicrobial activity against Escherichia coli expressing beta-lactamase SME-1 by CLSI broth microdilution method
Series [38] deals with Escherichia coli. Briefly: microbe, parasite or virus in culture. The source holds these as a separate data set.
Description: Antimicrobial activity against Escherichia coli expressing beta-lactamase VIM-1 by CLSI broth microdilution method
Series [39] concerns Escherichia coli. Briefly: microbe, parasite or virus in culture. The source holds these as a separate data set.
Description: Antimicrobial activity against Escherichia coli expressing beta-lactamase TEM-121 by CLSI broth microdilution method
The test system of series [40] is Escherichia coli. Description: Antimicrobial activity against Escherichia coli expressing beta-lactamase KPC-2 by CLSI broth microdilution method. The class given is functional.
Series [41] has as its system Escherichia coli. Description: microbe, parasite or virus in culture. The source holds these as a separate data set.
Description: Antimicrobial activity against Escherichia coli expressing beta-lactamase SPM-1 by CLSI broth microdilution method
Series [42] has as its system Escherichia coli. Briefly: microbe, parasite or virus in culture. This is another data set of the same source.
Description: Antimicrobial activity against Escherichia coli expressing beta-lactamase CTXM-15 by CLSI broth microdilution method
Series [43] has as its system Escherichia coli. Description: microbe, parasite or virus in culture. The source holds these as a separate data set.
Description: Antimicrobial activity against Escherichia coli expressing beta-lactamase IMI-1 by CLSI broth microdilution method
The subject of series [44] is Escherichia coli. Description: microbe, parasite or virus in culture. The source holds these as a separate data set.
Description: Antimicrobial activity against Escherichia coli expressing beta-lactamase Oxa-48 by CLSI broth microdilution method
Series [45] deals with Escherichia coli. Briefly: microbe, parasite or virus in culture. This is another data set of the same source.
Description: Antimicrobial activity against Escherichia coli expressing beta-lactamase CTXM-3 by CLSI broth microdilution method
In series [46] the test system is Escherichia coli. Description: microbe, parasite or virus in culture. The source holds these as a separate data set.
Description: Antimicrobial activity against Escherichia coli expressing beta-lactamase KPC-8 by CLSI broth microdilution method

On to `C[C@@H](O)[C@H]1C(=O)N2C(C(=O)O)=C(S[C@@H]3CN[C@H](CNS(N)(=O)=O)C3)[C@H](C)[C@H]12` [DORIPENEM], for which, in the series on Mus musculus, the Activity result is “Non-Toxic”. In addition, the inhibition in series [1] was 0%.
For the compound `C[C@@H](O)[C@H]1C(=O)N2C(C(=O)O)=C(S[C@@H]3CN[C@H](C(=O)N(C)C)C3)[C@H](C)[C@H]12` [MEROPENEM], the MIC against Escherichia coli [2] was at most 0.06 µg/mL; with Escherichia coli [3], at most 0.06 µg/mL; in the series on Escherichia coli [4], 64 µg/mL (≈ 167 µM); with Escherichia coli [5], at most 0.06 µg/mL; in the series on Escherichia coli [7], at most 0.06 µg/mL; in the series with Escherichia coli [8], 0.125 µg/mL (≈ 0.326 µM). Further, the MIC with Escherichia coli [9] was at most 0.06 µg/mL; with Escherichia coli [10] it was at most 0.06 µg/mL; in the series on Escherichia coli [11], at most 0.015 µg/mL; in the series with Escherichia coli [12], 0.25 µg/mL (≈ 0.652 µM); against Escherichia coli [13], at most 0.06 µg/mL; against Escherichia coli [14], at most 0.06 µg/mL. Also, the MIC in the series on Escherichia coli [15] was at most 0.06 µg/mL; against Escherichia coli [16], 0.125 µg/mL (≈ 0.326 µM); against Escherichia coli [17], at most 0.06 µg/mL; in the series on Escherichia coli [18], 2 µg/mL (≈ 5.22 µM); against Escherichia coli [19] it was 1 µg/mL (≈ 2.61 µM); in the series on Escherichia coli [20], 16 to 64 µg/mL (≈ 41.7 to 167 µM). The MIC with Escherichia coli [21] is at most 0.015 µg/mL; against Escherichia coli [22] it was 0.125 µg/mL (≈ 0.326 µM); against Escherichia coli [23], at most 0.015 µg/mL; against Escherichia coli [24] it was at most 0.06 µg/mL; with Escherichia coli [25], at most 0.06 µg/mL; in the series with Escherichia coli [26], at most 0.06 µg/mL. For the same compound, the MIC against Escherichia coli [27] was 8 µg/mL (≈ 20.9 µM); against Escherichia coli [28] it was at most 0.06 µg/mL; against Escherichia coli [29], at most 0.06 µg/mL; with Escherichia coli [30], at most 0.06 µg/mL; with Escherichia coli [31], 1 µg/mL (≈ 2.61 µM); against Escherichia coli [32] it was at most 0.015 µg/mL. In addition, the MIC is 2 µg/mL (≈ 5.22 µM) in the series with Escherichia coli [33]; 0.5 µg/mL (≈ 1.3 µM) with Escherichia coli [34]; 1 µg/mL (≈ 2.61 µM) with Escherichia coli [35]; at most 0.06 µg/mL in the series on Escherichia coli [36]; 4 µg/mL (≈ 10.4 µM) in the series with Escherichia coli [37]; 4 µg/mL (≈ 10.4 µM) in the series with Escherichia coli [38]. The MIC with Escherichia coli [39] was at most 0.06 µg/mL; against Escherichia coli [40], 2 µg/mL (≈ 5.22 µM); in the series with Escherichia coli [41], 8 µg/mL (≈ 20.9 µM); against Escherichia coli [42], at most 0.015 µg/mL; against Escherichia coli [43], 1 µg/mL (≈ 2.61 µM); with Escherichia coli [44], 1 µg/mL (≈ 2.61 µM). For the same compound, the MIC against Escherichia coli [45] is at most 0.06 µg/mL; in the series with Escherichia coli [46], 2 µg/mL (≈ 5.22 µM). For the same compound, the half-life in [6] was 78 h. Also, the MIC90 in the series with Enterobacteriaceae worked out at 32 µg/mL (≈ 83.4 µM).

In general, inhibition refers to the share of the control response that was lost under treatment. As a reminder, the half-life is the time needed for the level to fall by half in the phase considered. Broadly, the MIC90 is an inhibitory concentration at the 90% level, which refers to growth in some studies and to a panel of isolates in others. The low end stands for higher susceptibility, the high end for lower susceptibility.
